“And” between values parts separate entries of the source, which are not always exact repeats. Identical values can stand only once.
Experiments:
C154G/V331C LacY = system: C154G/V331C LacY; design: method as in PMID 19383792, PMID 17176050; conditions: stopped flow; cited from earlier work
D46N FucP = target: T1, D46N FucP (Escherichia coli, UniProt P11551, D46N); test: SSM-based electrophysiology, transport-deficient mutant D46N FucP (PSS currents); type: biochemical
T1 construct: made in house; host or cells: E. coli BL21 DE3
Procedure: (§1) Reconstitution of purified proteins (2–20 mg/ml) was carried out with E. coli phospholipids (Avanti Polar Lipids, E. coli polar lipid extract). Preformed liposomes (0.2–2 ml, 10 mg/ml) were dissolved in 1% (w/v) n-octyl-β-D-glucoside, and the protein suspension was mixed on ice to a concentration of 0.2 mg protein/mg lipid (LPR 5).
(§2) Wt XylE, wt FucP, and the mutant proteins were reconstituted using overnight incubation in 400 mg/ml BioBeads (SM-2 Adsorbent Media, Bio-Rad) at 4 °C. After reconstitution, the samples were diluted to 2.5 mg/ml lipid concentration, frozen in liquid nitrogen, and stored at −80 °C. For wt LacY and mutant proteins, this procedure was not successful. We, therefore, applied the previously established n-octyl-β-D-glucoside dilution method (1:100) ([69]).
(§3) SSM measurements were performed as described ([20], [23]). After thawing the sample and sonication in a water bath, 30 μl of proteoliposomes (2.5 mg/ml lipid at LPR 5) was allowed to adsorb for 1 to 2 h to an octadecanethiol/phosphatidylcholine hybrid bilayer on a gold surface (the sensor).
(§4) For measurements, a single solution exchange configuration ([23]) was employed that consisted in three phases of 0.5 s duration each: Flow of nonactivating solution (NA), activating solution (A), and nonactivating solution (NA). Only the activating solution contained the sugar. When pH dependence is determined, pH of NA and A solutions during one experiment are kept constant. Between experiments using different pH values, the sensor was incubated at the new pH for 3 min to equilibrate the intraliposomal pH.
(§5) Instruments with different time resolution were used as required. […] Currents were recorded throughout the entire time and amplified with a current amplifier set to a gain of […] and a rise time of 10 ms (low time-resolution set up) or 3 ms (high time-resolution set up).
(§6) All NA solutions were buffered in 100 mM KPi at a given pH value. NA solutions used with LacY contained 1 mM DTT in addition. A solutions were made from NA solutions by adding the respective sugar at a given concentration to induce the symport reaction. Sugar concentration jumps initiated sugar-proton symport, and charge transfer was measured by capacitive coupling. Therefore, only transient currents were recorded.
(§7) Each dataset represented with error bars was generated by performing the same experiment on multiple sensors (n ≥ 3). Error bars represent standard deviations of the average value. When peak currents are averaged across sensors, datasets are normalized before averaging. When the protein catalyzes transport and PSS currents are negligible, the peak current of the transient represents a good approximation of the current generated by the steady-state symport activity of the transporter. In most cases, peak currents have been used to derive kinetic and thermodynamic parameters according to the equations given in Figure 2 (KM, Imax ∼ Vmax, Hill coefficient n), Figure 4 (KD and rate constants for sugar binding kon and release koff), and Figure 6 (pKa for proton binding and pKb for proton release). Reconstruction of transporter currents for analysis of biphasic currents has been performed as described previously ([70]). This is required when transport and PSS currents are observed at the same time.

D27N XylE = target: T2, D27N XylE (Escherichia coli, UniProt P0AGF4, D27N); test: SSM-based electrophysiology, transport-deficient mutant D27N XylE (PSS currents, electrogenic binding); type: biochemical
T2 construct: made in house; host or cells: E. coli BL21 DE3
Procedure: as §1, §2, §3, §4, §5, §6, §7

wt XylE = wt XylE (Escherichia coli, UniProt P0AGF4); test: biochemical; design: made in house; host or cells: E. coli BL21 DE3
Procedure: as §1, §2, §3, §4, §5, §6, §7

XylE [1] = conditions: uptake and competition-uptake assays; cited from earlier work
XylE [2] = target: XylE; design: method as in PMID 23075985; conditions: read-out: KD, isothermal titration calorimetry; cited from earlier work
Q175I/L297F XylE = target: T3, Q175I/L297F XylE (Escherichia coli, UniProt P0AGF4, L297F/Q175I); test: biochemical
T3 construct: made in house; host or cells: E. coli BL21 DE3
Procedure: as §1
Wt XylE, wt FucP, and the mutant proteins were reconstituted using overnight incubation in 400 mg/ml BioBeads (SM-2 Adsorbent Media, Bio-Rad) at 4 °C. After reconstitution, the samples were diluted to 2.5 mg/ml lipid concentration, frozen in liquid nitrogen, and stored at −80 °C. […] We, therefore, applied the previously established n-octyl-β-D-glucoside dilution method (1:100) ([69]).
as §3, §4, §5, §6, §7

wt LacY [3] = target: T4, wt LacY (Escherichia coli, UniProt P02920); test: SSM-based electrophysiology, proteoliposomes with wt LacY; type: biochemical
T4 construct: made in house; host or cells: E. coli XL1-Blue
T4 sequence (P02920 1-417): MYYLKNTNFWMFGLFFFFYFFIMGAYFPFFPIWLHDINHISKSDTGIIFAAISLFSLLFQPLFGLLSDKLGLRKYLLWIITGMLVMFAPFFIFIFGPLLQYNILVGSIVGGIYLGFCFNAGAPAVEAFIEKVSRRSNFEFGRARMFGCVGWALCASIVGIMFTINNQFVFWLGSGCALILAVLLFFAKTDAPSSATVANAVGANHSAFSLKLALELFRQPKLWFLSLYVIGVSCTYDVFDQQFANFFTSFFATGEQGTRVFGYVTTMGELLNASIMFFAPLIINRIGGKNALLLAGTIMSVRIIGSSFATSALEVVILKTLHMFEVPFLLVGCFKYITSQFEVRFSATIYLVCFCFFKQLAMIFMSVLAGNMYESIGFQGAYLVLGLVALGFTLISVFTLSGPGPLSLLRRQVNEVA
Procedure: as §1, §2, §3, §4, §5, §6, §7

E325A LacY = target: T5, E325A LacY (Escherichia coli, UniProt P02920, E325A); test: SSM-based electrophysiology, transport-deficient mutant E325A LacY (PSS currents, electrogenic binding); type: biochemical; conditions: for Q (pC) Mut, transferred charge: pH 7.6; for Q (pC) Mut, transferred charge / kobs (s^−1) mut: saturating substrate (100 mM D-lactose, lactulose; 5 mM TDG); for kobs (s^−1) mut: kobs = 1/τ, limited by time resolution
T5 construct: made in house; host or cells: E. coli XL1-Blue
Procedure: as §1, §2, §3, §4, §5, §6, §7

wt FucP = target: T6, wt FucP (Escherichia coli, UniProt P11551); test: SSM-based electrophysiology, proteoliposomes with wt FucP; type: biochemical
T6 construct: made in house; host or cells: E. coli BL21 DE3
T6 sequence (P11551 1-438): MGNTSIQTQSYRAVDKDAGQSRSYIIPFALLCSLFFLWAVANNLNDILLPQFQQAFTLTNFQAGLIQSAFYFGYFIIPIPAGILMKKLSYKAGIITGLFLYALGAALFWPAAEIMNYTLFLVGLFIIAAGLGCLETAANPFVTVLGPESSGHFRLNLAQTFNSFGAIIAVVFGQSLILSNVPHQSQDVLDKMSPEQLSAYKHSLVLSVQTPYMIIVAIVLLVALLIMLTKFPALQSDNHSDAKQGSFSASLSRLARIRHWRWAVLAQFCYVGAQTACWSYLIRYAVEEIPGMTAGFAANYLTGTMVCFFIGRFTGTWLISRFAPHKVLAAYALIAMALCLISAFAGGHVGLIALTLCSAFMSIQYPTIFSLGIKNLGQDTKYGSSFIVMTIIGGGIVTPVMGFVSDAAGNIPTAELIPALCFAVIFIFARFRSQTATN
Procedure: as §1, §2, §3, §4, §5, §6, §7

single-Cys LacY = target: single-Cys LacY; design: method as in PMID 7918438, PMID 15304639; conditions: read-out: KD, protection against labeling; cited from earlier work
wt LacY [4] = target: T4, wt LacY; conditions: pH 7.6, main substrate, cited from earlier work
LacY = conditions: cited from earlier work
[5] = EC50,1, double Michaelis–Menten fit, pH 7.6, peak currents
[6] = EC50,2, double Michaelis–Menten fit, pH 7.6, peak currents
[7] = pH 7.6, peak currents, Hill equation
[8] = reconstructed transporter currents, alkaline range, double titration

T3 sequence (P0AGF4 whole entry Q175I/L297F): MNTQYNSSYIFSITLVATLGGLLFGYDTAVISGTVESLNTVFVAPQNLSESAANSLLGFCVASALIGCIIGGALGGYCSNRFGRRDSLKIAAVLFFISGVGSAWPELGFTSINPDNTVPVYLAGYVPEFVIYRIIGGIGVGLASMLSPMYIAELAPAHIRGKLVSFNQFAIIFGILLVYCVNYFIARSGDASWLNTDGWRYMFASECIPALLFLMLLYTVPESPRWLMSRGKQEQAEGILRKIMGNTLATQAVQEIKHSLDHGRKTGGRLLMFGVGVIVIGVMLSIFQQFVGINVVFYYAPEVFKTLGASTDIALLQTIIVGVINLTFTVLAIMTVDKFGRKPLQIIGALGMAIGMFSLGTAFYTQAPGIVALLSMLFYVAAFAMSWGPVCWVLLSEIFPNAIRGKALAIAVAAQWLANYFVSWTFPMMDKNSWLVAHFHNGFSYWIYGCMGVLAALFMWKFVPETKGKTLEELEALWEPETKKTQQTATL
wt XylE, sequence (P0AGF4 whole entry): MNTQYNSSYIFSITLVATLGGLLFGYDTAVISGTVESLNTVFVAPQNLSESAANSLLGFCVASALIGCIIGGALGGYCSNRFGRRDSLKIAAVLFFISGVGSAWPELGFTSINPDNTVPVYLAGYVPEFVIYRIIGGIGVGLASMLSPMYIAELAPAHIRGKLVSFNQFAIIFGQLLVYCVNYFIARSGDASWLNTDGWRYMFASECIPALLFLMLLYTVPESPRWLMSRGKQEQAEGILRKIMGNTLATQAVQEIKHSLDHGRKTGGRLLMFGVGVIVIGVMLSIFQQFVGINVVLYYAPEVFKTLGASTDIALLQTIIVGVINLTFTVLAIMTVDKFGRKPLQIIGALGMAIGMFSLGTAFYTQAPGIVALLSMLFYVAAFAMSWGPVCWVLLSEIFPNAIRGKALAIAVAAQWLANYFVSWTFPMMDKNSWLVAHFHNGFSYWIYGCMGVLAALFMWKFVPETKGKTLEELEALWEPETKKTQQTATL
T2 sequence (P0AGF4 whole entry D27N): as the sequence (P0AGF4 whole entry Q175I/L297F) above, with D27N, I175Q, F297L counted along it
T5 sequence (P02920 whole entry E325A): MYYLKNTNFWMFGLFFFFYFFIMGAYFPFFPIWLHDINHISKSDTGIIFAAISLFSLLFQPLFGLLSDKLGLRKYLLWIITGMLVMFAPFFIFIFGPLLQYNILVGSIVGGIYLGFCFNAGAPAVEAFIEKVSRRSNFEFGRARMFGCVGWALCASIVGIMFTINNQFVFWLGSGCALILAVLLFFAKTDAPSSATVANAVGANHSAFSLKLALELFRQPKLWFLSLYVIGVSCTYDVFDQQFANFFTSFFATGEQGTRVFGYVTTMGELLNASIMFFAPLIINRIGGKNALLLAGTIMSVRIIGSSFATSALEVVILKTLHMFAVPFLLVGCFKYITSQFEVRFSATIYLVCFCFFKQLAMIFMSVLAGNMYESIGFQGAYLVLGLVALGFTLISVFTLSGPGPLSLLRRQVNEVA
T1 sequence (P11551 whole entry D46N): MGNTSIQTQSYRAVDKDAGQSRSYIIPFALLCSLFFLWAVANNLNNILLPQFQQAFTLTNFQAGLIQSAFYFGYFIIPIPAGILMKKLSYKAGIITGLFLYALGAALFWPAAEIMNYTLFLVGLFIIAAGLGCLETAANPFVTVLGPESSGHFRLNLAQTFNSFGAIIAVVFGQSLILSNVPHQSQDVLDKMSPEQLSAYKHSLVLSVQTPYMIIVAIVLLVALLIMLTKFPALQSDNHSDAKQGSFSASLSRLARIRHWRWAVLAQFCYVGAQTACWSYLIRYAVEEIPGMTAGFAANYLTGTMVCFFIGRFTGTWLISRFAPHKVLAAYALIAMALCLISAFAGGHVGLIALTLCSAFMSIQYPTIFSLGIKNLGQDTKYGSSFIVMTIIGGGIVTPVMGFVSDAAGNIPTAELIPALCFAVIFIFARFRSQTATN

O=[N+]([O-])c1ccc(OC2O[C@H](CO)[C@H](O)[C@H](O)[C@H]2O)cc1 (stereo partly drawn) [p-nitrophenyl-D-galactopyranoside]
rate constant of the binding reaction (C154G/V331C LacY): 10^6 M^−1 s^−1 | rate constant of the following conformational changes (C154G/V331C LacY): 250 s⁻¹

OC[C@H]1OC(O)[C@H](O)[C@@H](O)[C@@H]1O (stereo partly drawn) [D-glucose]
induction of PSS currents (D46N FucP): do not generate PSS currents | Kd (D27N XylE; KD (mM) mut, pH 7.6, hyperbolic fit of peak currents, in Table 3 headed EC50): 1.9 ± 0.35 mM | Kd (D27N XylE; KD from fit of concentration-dependent kobs, pH 7.6): 0.67 ± 0.1 mM | Imax (nA) slow component (D27N XylE; pH 7.6): <0.05 nA | Q (pC) Mut, transferred charge (D27N XylE; pH 7.6, 30 mM substrate): 1.1 ± 0.3 (pH 7.6) pC | IPeak (pA) fast component (D27N XylE; pH 7.6, saturating substrate): 60 pA and 60 ± 25 pA | kobs (s^−1) mut (D27N XylE; saturating substrate (30 mM), kobs = 1/τ, monoexponential fit, limited by time resolution): 300 ± 40 s⁻¹ | Kb (wt XylE): 0.0398 nM | EC50 (wt XylE; [5]): 160 ± 10 µM | EC50 (wt XylE; [6]): 6500 ± 900 µM | EC50 (wt XylE; EC50, Hill fit, pH 7.6, peak currents, Hill equation): 920 ± 120 µM | EC50 (wt XylE; apparent EC50 (half saturation constant, Michaelis–Menten equation; KM column), pH 7.6, D-glucose-induced slow PSS current, not transport): 380 µM and 400 µM | Q (pC) wt, PSS transferred charge (wt XylE; pH 3.0, 30 mM substrate): 2.5 ± 1 (pH 3.0) pC | slow peak current amplitude compared with D-xylose-induced currents (wt XylE; pH 7.0): 26% | Imax in percent of Imax of the main substrate (D-xylose) (wt XylE; pH 7.6): 26% and 26 ± 5% | Imax (nA) slow component (wt XylE; pH 7.6, hyperbolic fit of peak current): 0.47 ± 0.1 nA | n (Hill coefficient) (wt XylE; [7]): 0.57 ± 0.03 | IPeak (pA) fast component (wt XylE; pH 7.6, saturating substrate, transport current given as upper limit): <470 pA | pKa (wt XylE; pH-dependent peak currents, acidic range): 4.7 ± 0.1 | transport of radioactively labeled sugar (XylE [1]): not transported | Kd (XylE [2]): 770 µM | IPeak (pA) fast component (Q175I/L297F XylE; pH 7.6, saturating substrate): 240 pA and 240 ± 40 pA | pKa (Q175I/L297F XylE; reconstructed transporter currents, acidic range): 4.6 ± 0.1 | pKb1 (Q175I/L297F XylE; [8]): ~7.5 and 7.3 ± 0.1 | pKb2 (Q175I/L297F XylE; [8]): 9.8 ± 0.2

OC[C@H]1O[C@@H](O[C@@H]2[C@@H](CO)OC(O)(CO)[C@H]2O)[C@H](O)[C@@H](O)[C@H]1O (mixture of isomers) [Lactulose]
EC50 (wt LacY [3]; [5]): 880 ± 100 µM | EC50 (wt LacY [3]; [6]): 90000 ± 42000 µM | Imax in percent of Imax of the main substrate (D-lactose) (wt LacY [3]; pH 7.6): 71 ± 8% | n (Hill coefficient) (wt LacY [3]; [7]): 0.55 ± 0.08 | Kd (E325A LacY): 5000 ± 600 µM | Q (pC) Mut, transferred charge (E325A LacY): 2.2 ± 0.5 (pH 7.6) pC | kobs (s^−1) mut (E325A LacY): 380 ± 40 s⁻¹

OC[C@@H]1OC(O)[C@@H](O)[C@H](O)[C@@H]1O (stereo partly drawn) [L-galactose]
Imax in percent of Imax of the main substrate (L-fucose) (wt FucP; pH 7.6): 123 ± 8%

O[C@@H]1[C@@H](O)[C@@H](O)CO[C@H]1O [L-arabinose]
induction of PSS currents (D46N FucP): do not generate PSS currents

6-Deoxy-D-glucose
induction of currents (substrate identification) (wt XylE; pH 7.0): generated signals identifying them as substrates | Imax in percent of Imax of the main substrate (D-xylose) (wt XylE; pH 7.6): 35 ± 5% | Km (wt XylE; pH 7.6, minor substrate, peak currents, low time-resolution set up, read-out: KM (mM) Michaelis–Menten equation): 0.2 ± 0.05 mM

OC[C@H]1O[C@@H](O[C@H]2[C@H](O)[C@@H](O)[C@H](O)O[C@@H]2CO)[C@H](O)[C@@H](O)[C@H]1O [D-lactose]
Kd (single-Cys LacY): 1000 to 10000 µM | Imax (wt LacY [4]): 0.7 ± 0.2 nA | Km (wt LacY [4]; read-out: KM (mM) Michaelis–Menten equation): 5.3 ± 0.5 mM | transport rate (LacY): 30 to 50 s⁻¹ | Km (LacY; radioactively labeled sugars, read-out: KM, literature): 500 to 3000 µM | Q (pC) wt, PSS transferred charge (wt LacY [3]; pH 5.0, 100 mM substrate): 2.6 ± 0.6 (pH 5.0) pC | Kd (E325A LacY): 20000 ± 3000 µM | Q (pC) Mut, transferred charge (E325A LacY): 3.1 ± 1.8 (pH 7.6) pC | kobs (s^−1) mut (E325A LacY): 260 ± 60 s⁻¹

OC1OC[C@@H](O)[C@@H](O)[C@@H]1O (stereo partly drawn) [D-arabinose]
EC50 (wt FucP; [5]): 820 ± 530 µM | EC50 (wt FucP; [6]): 38000 ± 9000 µM | Imax in percent of Imax of the main substrate (L-fucose) (wt FucP; pH 7.6): 132 ± 13% | n (Hill coefficient) (wt FucP; [7]): 0.62 ± 0.04

OC[C@@H]1OC(O)[C@H](O)[C@@H](O)[C@@H]1O (stereo partly drawn) [L-idose]
induction of currents (substrate identification) (wt XylE; pH 7.0): generated signals identifying them as substrates

OC[C@H]1OC(O)[C@@H](O)[C@H](O)[C@@H]1O (stereo partly drawn) [D-altrose]
induction of currents (substrate identification) (wt FucP; pH 8.0): generated signals identifying them as substrates
